Laboratory results published in paper PMC11872507, “Lasso peptides sviceucin and siamycin I exhibit anti-virulence activity and restore vancomycin effectiveness in vancomycin-resistant pathogens” (iScience, 2025).
Converted amounts (≈) assume the structure as drawn.

Tests used:
[1] = test system: E. faecalis V583; experiment: microbe, parasite or virus in culture; format: cell-based, Enterococcus faecalis
[2] = test system: E. faecium 1 231 502; experiment: microbe, parasite or virus in culture; format: cell-based, Enterococcus faecium; conditions: Enterococcus faecium, 1231502, read-out: Vancomycin MIC
[3] = test system: E. faecalis V583 ΔvanB; experiment: microbe, parasite or virus in culture; format: cell-based, Enterococcus faecalis; conditions: Enterococcus faecalis, read-out: Vancomycin MIC
[4] = test system: S. aureus 16038 (VISA); experiment: microbe, parasite or virus in culture; format: cell-based, Staphylococcus aureus; conditions: Staphylococcus aureus, VISA, read-out: Vancomycin MIC
[5] = test system: SiaA; experiment: Vancomycin MIC, microdilution; format: cell-based, Enterococcus faecalis
Description: (§1) The MIC of vancomycin was determined by the microdilution method described in the guidelines of the European Committee on Antimicrobial Susceptibility Testing (EUCAST 2024, v14.0 Breakpoint Tables).[58] For enterococci, GM17 medium was used instead of CAMH medium since enterococci cannot degrade starch, the main carbohydrate of MH medium. 2-fold serial dilutions of the tested antibiotic were performed to obtain concentrations ranging from 0.5 to 512 μg/mL. LP were then added to the wells at the desired concentration. The medium was inoculated with a final inoculum of 5 × 10^5 CFU/mL. The MIC is the lowest concentration that prevents visible in vitro growth.
(§2) Resistant clones to sviceucin were selected by plating bacteria on GM17 agar medium supplemented with vancomycin at 32 μg/mL and sviceucin at 10 μM. Growth and MIC of vancomycin and sviceucin of the resistant clones were tested. The selection for siamycin I resistance was done by performing serial passages of bacteria in GM17 medium supplemented with vancomycin 10 μg/mL and increasing concentrations of siamycin I from 0.5 to 5 μM. Single nucleotide polymorphism (SNPs) analysis was performed on the sequenced gDNA of each selected resistant mutant.

[6] = test system: Svic1; experiment: Vancomycin MIC, microdilution; format: cell-based, Enterococcus faecalis
Description: as §1, §2

[7] = test system: V583 ΔvanSBmalT::vanR^D53E; experiment: Vancomycin MIC, microdilution; format: cell-based; conditions: Enterococcus faecalis; vancomycin alone (control); phosphomimetic VanR^D53E
Description: as §1

[8] = test system: SiaB; experiment: Vancomycin MIC, spontaneous mutants; format: cell-based; conditions: Enterococcus faecalis; vancomycin alone; CcpA D121V
Description: as §1, §2

[9] = test system: SiaC; experiment: Vancomycin MIC, spontaneous mutants; format: cell-based; conditions: Enterococcus faecalis; vancomycin alone; CcpA A148V
Description: as §1, §2

[10] = test system: SiaD; experiment: Vancomycin MIC, spontaneous mutants; format: cell-based; conditions: Enterococcus faecalis; vancomycin alone; CcpA A89P
Description: as §1, §2

[11] = test system: SiaE; experiment: Vancomycin MIC, spontaneous mutants; format: cell-based; conditions: Enterococcus faecalis; vancomycin alone; frameshift in ccpA
Description: as §1, §2

[12] = test system: Svic2; experiment: Vancomycin MIC, spontaneous mutants; format: cell-based; conditions: Enterococcus faecalis; vancomycin alone; nonsense mutation in atpA
Description: as §1, §2

[13] = test system: Svic3; experiment: Vancomycin MIC, spontaneous mutants; format: cell-based; conditions: Enterococcus faecalis; vancomycin alone; nonsense mutation in atpF
Description: as §1, §2

[14] = test system: Svic4; experiment: Vancomycin MIC, spontaneous mutants; format: cell-based; conditions: Enterococcus faecalis; vancomycin alone; atpD RBS modification
Description: as §1, §2

[15] = test system: V583 ΔvanB::vanA; experiment: Vancomycin MIC, microdilution; format: cell-based; conditions: Enterococcus faecalis; vancomycin alone (control)
Description: (§3) To further support this, we investigated the origin of the different activity spectra of sviceucin and siamycin I between VanA- and VanB-type vancomycin resistance. We first replaced vanSB by vanS in the VanB-type strain E. faecalis V583. VanS-VanRB strain was sensitive to vancomycin (MIC = 2 μg/mL), probably because of an impaired signal transduction between VanS and VanRB. To bypass this issue, we replaced the vanRBSB-PvanYB fragment by the vanRS-PvanH fragment from a VanA-type operon, resulting in a VanA-type transduction system fused to VanB-type resistance genes.

[16] = test system: V583 ΔvanSB-vanRB::vanS-vanR; experiment: Vancomycin MIC, microdilution; format: cell-based; conditions: Enterococcus faecalis; vancomycin alone (control); VanA-type transduction system, VanB-type resistance genes
Description: as §3

[17] = test system: VanS-VanRB strain; experiment: Vancomycin MIC, microdilution; format: cell-based; conditions: Enterococcus faecalis; vanSB replaced by vanS in V583
Description: as §3

[18] = Enterococcus faecalis, read-out: Vancomycin MIC

Compound: CN[C@H](CC(C)C)C(=O)N[C@H]1C(=O)N[C@@H](CC(N)=O)C(=O)N[C@H]2C(=O)N[C@H]3C(=O)N[C@H](C(=O)N[C@H](C(=O)O)c4cc(O)cc(O)c4-c4cc3ccc4O)[C@H](O)c3ccc(c(Cl)c3)Oc3cc2cc(c3O[C@@H]2O[C@H](CO)[C@@H](O)[C@H](O)[C@H]2O[C@H]2C[C@](C)(N)[C@H](O)[C@H](C)O2)Oc2ccc(cc2Cl)[C@H]1O [Vancomycin]
- MIC ([1]; Enterococcus faecalis, V583, read-out: Vancomycin MIC): 32 µg/mL (≈ 22.1 µM)
- Vancomycin MIC ([1]; vancomycin alone (control, 1:1 water:methanol formulation), GM17, 5 × 10^5 CFU/mL, VanB): 32 µg/mL
- MIC [2]: 128 µg/mL (≈ 88.3 µM)
- MIC [3]: 2 µg/mL (≈ 1.38 µM)
- MIC [4]: 4 µg/mL (≈ 2.76 µM)
- MIC [5, 18]: 128 µg/mL (≈ 88.3 µM)
- fold increase of the MIC of vancomycin vs wild-type ([5]; vancomycin alone): 4 fold
- Vancomycin MIC ([5]; {}): 128 µg/mL
- MIC [6, 18]: 128 µg/mL (≈ 88.3 µM)
- fold increase of the MIC of vancomycin vs wild-type ([6]; vancomycin alone): 4 fold
- Vancomycin MIC ([6]; {}): 128 µg/mL
- MIC [7]: 32 µg/mL (≈ 22.1 µM)
- MIC [8]: 64 µg/mL (≈ 44.2 µM)
- MIC [9]: 64 µg/mL (≈ 44.2 µM)
- MIC [10]: 64 µg/mL (≈ 44.2 µM)
- MIC [11]: 32 µg/mL
- MIC [12]: 256 µg/mL (≈ 177 µM)
- MIC [13]: 256 µg/mL (≈ 177 µM)
- MIC [14]: 256 µg/mL (≈ 177 µM)
- MIC [15]: 32 µg/mL (≈ 22.1 µM)
- MIC [16]: 32 µg/mL (≈ 22.1 µM)
- MIC [17]: 2 µg/mL (≈ 1.38 µM)
